Measurements: patent US12728109B2, “Method of increasing the population of Dialister spp. in the gut microbiome” (DSM IP ASSETS B.V., priority 2020, dated 2026)

Tests used:
[1] = tested on: Dialister; experiment: In vitro fermentation study 2: intestinal batch fermentation with fecal suspension, 16S rRNA Illumina sequencing and flow cytometry; format: cell-based, Dialister spp.; details: fermentation supernatant at 24 h, donor C, FIG. 1B
Protocol: (§1) At the start of this intestinal batch fermentation incubation, all test ingredients were added from stock solutions to the modified nutritional medium, containing (g/l): 2.5 K2HPO4, 10.9 KH2PO4, 2 NaHCO3, 2 yeast extract, 2 peptone, 1 mucin, 0.5 cystein, 2 Tween 80, 2 glucose, 2 starch, 2 cellobiose, 0.1 NaCl, 0.01 MgSO4·7H2O, 0.01 CaCl2·6H2O, 0.05 hemin, 0.5 bile salts.
The following compounds were added from stock solutions prepared in water: • Beta-carotene, • Vitamin B3, • Vitamin B5, • Vitamin B7, • Fructooligosaccharides (positive control)
(§2) As a source of the microbial community, freshly prepared fecal suspension from a donor was added to the reactors. […] All tests, except the blanks, were performed in single repetition. Incubation conditions were 48 h at 37° C., under shaking (90 rpm) and anaerobic conditions.
Microbial composition: Illumina sequencing was performed at the start and after 24 h of incubation. The technique targets the 16S rRNA gene that consists of variable and conserved regions, spread over the gene. Due to their key role in protein expression, the conserved regions are characterized by very low evolutionary rates.
The methodology applied involves primers that span 2 hypervariable regions (V3-V4) of the 16S rRNA gene. Using a pair-end sequencing approach, sequencing of 2×250 bp results in 424 bp amplicons. Such fragments are taxonomically more informative as compared to smaller fragments. Samples that were analyzed with Illumina sequencing were also analyzed with flow cytometry to determine the number of total bacterial cells, thus allowing to convert the proportional values obtained with Illumina into absolute quantities. Samples were analyzed on a BDFacs verse. The samples were run using the high flow rate. Bacterial cells were separated from medium debris and signal noise by applying a threshold level of 200 on the SYTO channel. Proper parent and daughter gates were set to determine all populations.

[2] = tested on: Dialister; experiment: In vitro fermentation study 1: intestinal batch fermentation with fecal suspension, shotgun metagenome sequencing; format: cell-based, Dialister spp.; details: fermentation supernatant at 24 hours; all tested concentrations (0.2x, 1x, 5x); FIG. 1A
Protocol: as §1, with “cysteine,” for “cystein,”
The following compounds were added from stock solutions prepared in water for vitamin B2 and B9, and in ethanol for vitamin K1, DHA and EPA:
as §2, with “Each compound was tested in three different concentrations. As” for “As”
Microbial composition: Total DNA was extracted from all fermentation samples collected throughout the study using the QIAamp DNA stool minikit (Qiagen, Crawley, United Kingdom) according to the manufacturer's instructions, apart from addition of a bead-beating step and increasing the lysis temperature to 95° C. as described previously. After DNA isolation, DNA was quantified using the Qubit High Sensitivity DNA assay (Thermo Fisher). Whole metagenome libraries were then prepared using the Illumina Nextera XT kit (Illumina) in accordance with the manufacturer's instructions, with the following modifications: Firstly, tagmentation time was increased to 7 min and secondly, following incorporation of indices and Ampure purification of the products, the samples were each individually sized by running on an Agilent High Sensitivity Chip (Agilent) and quantified using the Qubit High Sensitivity DNA assay (Thermo Fisher) in accordance with Teagasc Sequencing Platform SOPs. […] Delivered raw FASTQ sequence files were quality checked as follows: poor quality and duplicate read removal, as well as trimming was implemented using a combination of SAM and Picard tools. Taxonomy was assigned to the reads using the Metaphlan2 software.

[3] = tested on: fecal Dialister; experiment: Clinical study: randomized, double-blind, placebo-controlled study of colon-targeted vitamins, fecal microbial composition; format: in vivo; details: human, colon-release capsule once daily for four weeks, fecal samples; FIG. 1C
Text: Twelve participants were allocated to each of the six vitamin groups, and 24 participants allocated to the placebo group. All 96 participants completed the intervention. To be considered eligible for enrollment into the study, participants have to be able to give written informed consent; be aged between 20 and 50 years of age; have a BMI of between 18.5-30 Kg/m2; have a stable body weight (<5% change) over the past 3-months; be in generally good health, as determined by the investigator; have not consumed dietary supplements, prebiotic, probiotic, dietary or fiber-rich supplements within 4 weeks prior to baseline visit and be willing to avoid these supplements until the end of the study; be willing to avoid liver consumption for the duration for the study, be willing to maintain their current level of physical activity for the duration of the study; and be willing to consume the IP daily for the duration of the study. […] Before the randomization visit, participants food frequency questionnaires were analyzed to ensure their typical fiber intake is <30 g fiber/day. […] At the baseline visit (Visit 2), participants retuned a fecal samples collected in the previous 48 hours and eligibility was assessed. […] Participants returned their IP and compliance was assessed. […]

Compound | Dialister relative abundances compared to control ([1]; all tested concentrations) | Dialister relative abundances compared to control [2] | also measured
CC1=C(/C=C/C(C)=C/C=C/C(C)=C/C=C/C=C(C)/C=C/C=C(C)/C=C/C2=C(C)CCCC2(C)C)C(C)(C)CCC1 [beta-carotene, Beta-carotene] | increase |  | 
Cc1cc2nc3c(=O)[nH]c(=O)nc-3n(C[C@H](O)[C@H](O)[C@H](O)CO)c2cc1C [vitamin B2, Riboflavin] |  | substantial increase | 
NC(=O)c1cccnc1 [vitamin B3, Niacinamide] | no distinct increase |  | 
CC(C)(CO)[C@@H](O)C(=O)NCCC(=O)O [vitamin B5, Pantothenic acid] |  |  | Dialister relative abundances compared to control ([1]; at 0.2× and 5×): increase
O=C(O)CCCC[C@@H]1SC[C@@H]2NC(=O)N[C@@H]21 [vitamin B7, Biotin] | no distinct increase |  | 
Nc1nc2ncc(CNc3ccc(C(=O)N[C@@H](CCC(=O)O)C(=O)O)cc3)nc2c(=O)[nH]1 [vitamin B9, Folic acid] |  | no distinct increase | 
C=C1CC[C@H](O)C/C1=C/C=C1\CCC[C@]2(C)[C@@H]([C@H](C)CCCC(C)C)CC[C@@H]12 [vitamin D3, cholecalciferol] |  |  | Dialister relative abundance compared to placebo [3]: increase
CC1=C(C/C=C(\C)CCC[C@H](C)CCC[C@H](C)CCCC(C)C)C(=O)c2ccccc2C1=O [vitamin K1] |  | substantial increase | 
vitamin A |  |  | Dialister relative abundance compared to placebo [3]: increase
